Laboratory results as given in patent publication US8039616B2, “Benzodiazepine derivatives for treating hepatitis C infection” (AstraZeneca AB, priority 2005, dated 2011).

target: T1, HCV Polymerase (Hepatitis C virus genotype 1a, UniProt P27958); test: Polymerase 96 well microtitre plate based IC50 assay (33P-UTP incorporation, streptavidin FlashPlates); format: biochemical; settings: polyA/biotinylated-U13 template-primer, 100 minutes at 25° C.
T1 construct: the HCV Polymerase was expressed and purified by Prof Alistair Hawkins; made in house
Text: Polymerase 96 Well Microtitre Plate Based IC50 Assay
Inhibitors of HCV Polymerase can be detected radioactively by monitoring the incorporation of ^33P-UTP within an RNA template/Bi-primer system using streptavidin coated FlashPlates. The template and primer for the reaction can be bought externally from Amersham (Poly A) and MWG-Dharmacon (Biotinylated-U13). The cold UTP can be purchased from Roche and the HCV Polymerase was expressed and purified by Prof Alistair Hawkins at Newcastle University, UK.
50 μl substrate, 40 μl enzyme, 10 μl compound=100 μl assay
Compounds are diluted so that DMSO remains 10% at all times. E.g. 5 μl compound (10 mM)+5 μl DMSO+90 μl Buffer (see below for buffer)
Some 20 mM Tris-HCl, pH 7.5, 5 mM MgCl2, 25 mM KCL, 3 mM DTT and 0.05% BSA is made up.
The PolyA and Biotinylated U13 are annealed at 70° C. for 5 minutes to 40 μM U13 (212 μg/ml polyA.) and cooled gently on ice prior to use (110 μl primer (80 μM)+5.5 μl poly A+104.5 μl dH20.). Some 200 μl annealed primer/template is mixed with 12.8 μl UTP (1 mM stock), 25.6 μl 33p-UTP and 31761.6 μl Buffer to make the substrate mix.
From IC50 dilution plates 10 μl are transferred from column 3 into columns 3 and 3 on two separate assay plates. This is repeated for all compound dilutions to 2 separate assay plates. Then 10 μl 10% DMSO solution is added to positive and negative controls (see plate map below). In addition, 40 μl 20 mM Tris-HCl buffer is added to negative controls.
Then 50 μl substrate mix is added to all wells.
Then 40 μl enzyme mix each is added to all other wells and the reaction is left for 100 minutes shaking at 25° C.
The reaction is terminated with the addition of 100 μl, 100 mM EDTA and the volume is transferred to a streptavidin coated flash plate, covered and left for an hour.
All plates are washed three times in SkanWasher plate-washer (Skatron Instruments) under programme ‘AH’. The wash buffer contains, 0.01M phosphate buffer, 0.0027M potassium chloride and 0.137M sodium chloride, pH 7.4 at 25° C., 0.05% Tween
All plate are recovered and the cpmB read in the TopCount (supplied by DPM solutions), protocol 6.

T1 sequence (P27958 2421-3011): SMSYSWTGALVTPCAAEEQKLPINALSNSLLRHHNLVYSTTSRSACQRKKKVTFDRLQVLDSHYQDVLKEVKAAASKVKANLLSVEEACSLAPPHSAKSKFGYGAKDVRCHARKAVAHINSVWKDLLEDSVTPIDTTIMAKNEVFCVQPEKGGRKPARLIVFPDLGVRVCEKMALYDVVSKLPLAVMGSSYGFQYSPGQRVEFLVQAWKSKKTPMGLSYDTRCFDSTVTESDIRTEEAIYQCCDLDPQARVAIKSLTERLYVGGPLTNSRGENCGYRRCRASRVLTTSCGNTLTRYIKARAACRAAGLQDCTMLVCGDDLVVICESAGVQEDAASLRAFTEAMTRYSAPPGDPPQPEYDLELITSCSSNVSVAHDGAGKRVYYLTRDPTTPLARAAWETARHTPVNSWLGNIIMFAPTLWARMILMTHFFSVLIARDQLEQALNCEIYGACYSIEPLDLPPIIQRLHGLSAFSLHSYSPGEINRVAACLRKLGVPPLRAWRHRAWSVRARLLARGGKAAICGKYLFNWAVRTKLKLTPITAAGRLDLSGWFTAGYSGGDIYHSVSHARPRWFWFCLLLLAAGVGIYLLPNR

`CCOc1ccccc1C(=O)NC1N=C(c2ccc(Cl)cc2)c2ccccc2NC1=O` (stereo not drawn) [Example 1, N-[5-(4-Chloro-phenyl)-2-oxo-2,3-dihydro-1H-benzo[e][1,4]diazepin-3-yl]-2-ethoxy-benzamide] and `CCOc1ccccc1C(=O)N[C@H]1N=C(c2ccc(Cl)cc2)c2ccccc2NC1=O` [Example 2, (S)—N-[5-(4-Chloro-phenyl)-2-oxo-2,3-dihydro-1H-benzo[e][1,4]diazepin-3-yl]-2-ethoxy-benzamide] cannot be ordered by IC50: > 1000 nM for the first, > 1000 nM for the second.

`COc1ccc(OC)c(C(=O)NC2N=C(c3ccc(Cl)cc3)c3ccccc3NC2=O)c1` (stereo not drawn) [Example 3, N-[5-(4-Chloro-phenyl)-2-oxo-2,3-dihydro-1H-benzo[e][1,4]diazepin-3-yl]-2,5-dimethoxy-benzamide] and `COc1ccc(OC)c(C(=O)N[C@H]2N=C(c3ccc(Cl)cc3)c3ccccc3NC2=O)c1` [Example 4, (S)—N-[5-(4-Chloro-phenyl)-2-oxo-2,3-dihydro-1H-benzo[e][1,4]diazepin-3-yl]-2,5-dimethoxy-benzamide] cannot be ordered by IC50: < 1000 nM for the first, < 1000 nM for the second.

`COc1ccc(OC)c(C(=O)N[C@@H]2N=C(c3ccc(Cl)cc3)c3ccccc3NC2=O)c1` [Example 5, (R)—N-[5-(4-Chloro-phenyl)-2-oxo-2,3-dihydro-1H-benzo[e][1,4]diazepin-3-yl]-2,5-dimethoxy-benzamide] and `COc1ccc(F)cc1C(=O)NC1N=C(c2ccc(Cl)cc2)c2ccccc2NC1=O` (stereo not drawn) [Example 6, N-[5-(4-Chloro-phenyl)-2-oxo-2,3-dihydro-1H-benzo[e][1,4]diazepin-3-yl]-5-fluoro-2-methoxy-benzamide] cannot be ordered by IC50: > 1000 nM for the first, > 1000 nM for the second.

`COc1ccc(F)cc1C(=O)N[C@H]1N=C(c2ccc(Cl)cc2)c2ccccc2NC1=O` [Example 7, (S)—N-[5-(4-Chloro-phenyl)-2-oxo-2,3-dihydro-1H-benzo[e][1,4]diazepin-3-yl]-5-fluoro-2-methoxy-benzamide] and `COc1ccc(F)cc1C(=O)N[C@@H]1N=C(c2ccc(Cl)cc2)c2ccccc2NC1=O` [Example 8, (R)—N-[5-(4-Chloro-phenyl)-2-oxo-2,3-dihydro-1H-benzo[e][1,4]diazepin-3-yl]-5-fluoro-2-methoxy-benzamide] cannot be ordered by IC50: > 1000 nM for the first, > 1000 nM for the second.

`COc1ccc(Cl)cc1C(=O)NC1N=C(c2ccc(Cl)cc2)c2ccccc2NC1=O` (stereo not drawn) [Example 9, 5-Chloro-N-[5-(4-chloro-phenyl)-2-oxo-2,3-dihydro-1H-benzo[e][1,4]diazepin-3-yl]-2-methoxy-benzamide] and `COc1ccc(Cl)cc1C(=O)N[C@H]1N=C(c2ccc(Cl)cc2)c2ccccc2NC1=O` [Example 10, (S)-5-Chloro-N-[5-(4-chloro-phenyl)-2-oxo-2,3-dihydro-1H-benzo[e][1,4]diazepin-3-yl]-2-methoxy-benzamide] cannot be ordered by IC50: < 1000 nM for the first, < 1000 nM for the second.

`COc1ccc(Cl)cc1C(=O)N[C@@H]1N=C(c2ccc(Cl)cc2)c2ccccc2NC1=O` [Example 11, (R)-5-Chloro-N-[5-(4-chloro-phenyl)-2-oxo-2,3-dihydro-1H-benzo[e][1,4]diazepin-3-yl]-2-methoxy-benzamide] and `O=C(NC1N=C(c2ccc(Cl)cc2)c2ccccc2NC1=O)c1sccc1Br` (stereo not drawn) [Example 12, 3-Bromo-thiophene-2-carboxylic acid [5-(4-chloro-phenyl)-2-oxo-2,3-dihydro-1H-benzo[e][1,4]diazepin-3-yl]-amide] cannot be ordered by IC50: > 1000 nM for the first, > 1000 nM for the second.
